# From patent US9808434B2, “Compound for treating cancer and diabetes” (CITY OF HOPE, priority 2011, dated 2017)
# “Also recorded” adds a separate entry of the source.
# Columns and labels:
# [1] = tested on: HepG2 liver carcinoma cells; assay: Intracellular AMP:ATP ratio in HepG2; format: cell-based, human; settings: 5 μM, 1 h
# Experimental: ATP production from cells treated with test compounds were measured using the Luminescent ATP Detection Assay Kit. AMP, ATP and ADP were measured by UV-HPLC.
# Total intracellular ATP production in cells treated with either 5 μM COH-SR4 or 5 μM FCCP was measured by bioluminescence assay and expressed as percentage of time-matched vehicle (DMSO) control (FIG. 84A). Intracellular AMP: ATP ratios increased in HepG2 liver carcinoma cells following 1 h treatment with either 5 μM COH-SR4 or 5 μM FCCP (FIG. 84B) and in liver of db/db mice treated with COH-SR4 (5 mg/kg B.W.) for 5 weeks (FIG. 84C). All data represented are mean±SEM, *P<0.05.
# [2] = tested on: normal human aortic vascular smooth muscle cells (HAVSMC); assay: MTT assay, HAVSMC; format: cell-based
# Experimental: (§1) Cell density measurements were performed using a hemocytometer to count reproductive cells resistant to staining with trypan blue. Approximately 20,000 cells were plated into each well of 96-well flat-bottomed micro-titer plates. After 12 h or 24 h incubation at 37° C., medium containing either COH-SR4 (ranging 0-200 μM) or elesclomol (ranging 0-20 μM) were added to the cells. After 24 h, 48 h or 96 h incubation, 20 μL of 5 mg/mL MTT were introduced to each well and incubated for 2 h. The plates were centrifuged and medium was decanted. Cells were subsequently dissolved in 100 μl DMSO with gentle shaking for 2 h at room temperature, followed by measurement of OD570 (91).
# 3T3-L1 cells = assay: Intracellular triglyceride contents, AdipoRed Assay; format: cell-based, mouse; settings: 7 days in DM + compound
# Experimental: Intracellular triglyceride contents were measured using AdipoRed Assay™ and the results were shown in relative fluorescence units (RFU) in FIG. 5.
# 3T3-L1 preadipocytes cells were treated with differentiating media (DM) with COH-SR4 (1 μM, 3 μM, or 5 μM) or without for 7 days. […] As used in FIG. 9C, U=undifferentiated, D=differentiated with cocktail media.
# A2058 human melanoma = format: in vivo
# Experimental: For melanoma studies, C57B mice (for syngeneic B16-F0 mouse melanoma model) and Hsd: Athymic nude nu/nu mice (for A2058 human melanoma mouse xenografts model), were obtained from Harlan, Indianapolis, Ind. All animal experiments were carried out in accordance with a protocol approved by the Institutional Animal Care and Use Committee (IACUC). […] All animals were injected with 2×10^6 melanoma cells suspensions in 100 μL of PBS, subcutaneously into one flank of each mouse. Treatment was started 10 days after the implantation to see palpable tumor growth. […] Control groups were treated with 200 μL corn oil by oral gavage alternate days. Animals were examined daily for signs of tumor growth. Tumors were measured in two dimensions using calipers. Photographs of animals were taken at day 1, day 10, day 14, day 18, day 20, day 30, and day 51 after subcutaneous injection, are shown for all groups. Photographs of tumors were also taken at day 20 (for syngeneic model), and at day 51 (for xenograft model).
# C57B mice (for syngeneic B16-F0 mouse melanoma model) and Hsd: Athymic nude nu/nu mice (for A2058 human melanoma mouse xenografts model), were used for testing the impact of oral administration of COH-SR4 on melanoma progression in vivo models. […] All animals were injected with 2×10^6 melanoma cells suspensions in 100 μL of PBS, subcutaneously into one flank of each mouse. Treatment was started 10 days after the implantation of melanoma cells. […] Control groups were treated with 200 μL corn oil by oral gavage alternate day. Animals were examined daily for signs of tumor growth and body weights were recorded. […] Animals were examined daily for signs of tumor growth. Tumors were measured in two dimensions using calipers. […] Weights and photographs of tumors were also taken at day 20 (for syngeneic model), and at day 51 (for xenograft model) (FIG. 70B). […] Tumors were measured in two dimensions using calipers and time-course analysis of tumor regression was performed during the study. […]
# H520 cells = assay: MTT assay, H520; format: cell-based; settings: Homo sapiens, NCI-H520, 48 h
# Experimental: as §1
# The effect of COH-SR4 was first examined in a NCI panel of cancer cell lines, the results of which indicated good activity of COH-SR4 towards lung cancer (FIG. 78A). […] Values are presented as mean±SD from two separate determinations with eight replicates each (n=16) (FIG. 78B). […] Standard colony-forming assay was performed and the colonies were counted using Innotech Alpha Imager HP. […] TUNEL assay was performed using Promega fluorescence detection kit and examined using Zeiss LSM 510 META laser-scanning fluorescence microscope with filters 520 and 620 nm. […]
# [3] = tested on: Glioma Cells PBT-017 and/or U251; assay: Combination index COH-SR4 and 5-FU, cell line not stated; format: cell-based; settings: COH-SR4 <0.5 μM + 5-FU <125 μM
# Experimental: Effects of combination of COH-SR4 and a chemotherapy drug such as TMZ, SN38, CPT-11, and 5-FU were studied by combination index (CI) theorem and plot using the method described in Chou (“Experimental Design, and Computerized Simulation of Synergism and Antagonism in Drug Combination Studies,” Pharmacological Reviews, Vol. 58, No. 3), which is incorporated herein by reference in its entirety.
# COH-SR4 and a chemotherapy drug (TMZ, SN38, CPT-11, or 5-FU) were dissolved in DMSO individually, and then diluted to the appropriate concentration in the same cell culture media before applying to cells of each cell line. After 4 days, the amount of ATP present in the cell lysates were assessed using Progema's CellGlo kit. The CI of each combination of COH-SR4 and the chemotherapy drug was calculated and plotted against the concentration of COH-SR4 for each concentration of the chemotherapy drug used.
smiles,measurement,setting,value
"O=C(Nc1cc(Cl)cc(Cl)c1)Nc1cc(Cl)cc(Cl)c1 [COH-SR4, 1,3-bis(3,5-dichlorophenyl) urea]",intracellular AMP:ATP ratios,[1],increased
same,cytotoxicity in normal cells,[2]; 96 h,did not cause any significant cytotoxicity
same,cytotoxicity in normal cells,"[2]; concentrations effective in lung cancer cell lines, 48 h",did not exert any significant cytotoxicity
same,intracellular triglyceride contents (AdipoRed Assay),3T3-L1 cells,decreased intracellular triglyceride contents; also recorded: dose-dependently reduced
same,tumor regression and toxicity at higher dosage,A2058 human melanoma; 20 mg/kg b.w.,no further improvement in tumor regression and no toxicity was observed
same,tumor weight,"A2058 human melanoma; day 51, control 1.91±0.3 g",0.7 ± 0.1 g
same,survival (still alive),A2058 human melanoma; vehicle censored by day 51±3,≥ 88 days
same,IC50,H520 cells,2400 ± 300 nM
same,combination effect (CI) with 5-FU,[3],synergism
